What was measured:
[1] = molecular target: Aldo-keto reductase family 1 member B1 (Rattus norvegicus, UniProt P07943); test: biochemical; type: tissue-based, Lens of camera-type eye;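 further: inhibition of aldose reductase enzyme activity, measured with DL-glyceraldehyde as the substrate; in other assays of this panel Not Active means under 50% inhibition at 10 µM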
[2] = DRUGMATRIX: Calcium Channel Type L, Benzothiazepine radioligand binding (ligand: [3H] Diltiazem); type: cell membranes, Rattus norvegicus, Wistar, Brain, Membrane; details: Not Active = under 50% inhibition at 10 µM
[3] = molecular target: Prostaglandin G/H synthase 1 (Homo sapiens, UniProt P23219); test: biochemical; type: tissue-based, Platelet; details: platelet;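 further: inhibition of COX-1 enzyme activity, with arachidonic acid supplied as substrate; in other assays of this panel Not Active means under 50% inhibition at 10 µM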
[4] = molecular target: T1, D(4) dopamine receptor (Homo sapiens, UniProt P21917); test: DRUGMATRIX: Dopamine D4.2 radioligand binding (ligand: [3H] Spiperone); type: cell membranes, CHO-K1, Membrane; details: cho-k1; Not Active = under 50% inhibition at 10 µM
T1 sequence (P21917 whole entry): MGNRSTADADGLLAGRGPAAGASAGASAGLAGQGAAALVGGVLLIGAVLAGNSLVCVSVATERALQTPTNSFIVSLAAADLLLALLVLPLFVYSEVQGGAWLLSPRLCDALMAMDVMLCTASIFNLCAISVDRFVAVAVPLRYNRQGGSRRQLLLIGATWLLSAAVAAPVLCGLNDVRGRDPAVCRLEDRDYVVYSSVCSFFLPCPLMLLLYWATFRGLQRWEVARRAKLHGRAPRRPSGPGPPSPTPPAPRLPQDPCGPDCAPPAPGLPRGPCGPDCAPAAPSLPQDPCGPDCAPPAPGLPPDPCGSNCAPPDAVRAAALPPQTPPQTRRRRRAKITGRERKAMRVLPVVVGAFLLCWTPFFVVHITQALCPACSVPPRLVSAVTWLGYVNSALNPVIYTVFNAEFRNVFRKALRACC

[5] = DRUGMATRIX: Glutamate, NMDA, Agonism radioligand binding (ligand: [3H] CGP-39653); type: cell membranes, Rattus norvegicus, Wistar, Cerebral cortex, Membrane; details: Not Active = under 50% inhibition at 10 µM
[6] = DRUGMATRIX: Phosphodiesterase PDE3 enzyme inhibition (substrate: [3H]cAMP + cAMP); type: tissue-based, Homo sapiens; details: platelet; Not Active = under 50% inhibition at 10 µM
[7] = molecular target: Cytochrome P450 2D6 (Homo sapiens, UniProt P10635); details: bti-tn-5b1-4; further: in other assays of this panel Not Active means under 50% inhibition at 10 µM
Chain of Cytochrome P450 2D6 (P10635 whole entry): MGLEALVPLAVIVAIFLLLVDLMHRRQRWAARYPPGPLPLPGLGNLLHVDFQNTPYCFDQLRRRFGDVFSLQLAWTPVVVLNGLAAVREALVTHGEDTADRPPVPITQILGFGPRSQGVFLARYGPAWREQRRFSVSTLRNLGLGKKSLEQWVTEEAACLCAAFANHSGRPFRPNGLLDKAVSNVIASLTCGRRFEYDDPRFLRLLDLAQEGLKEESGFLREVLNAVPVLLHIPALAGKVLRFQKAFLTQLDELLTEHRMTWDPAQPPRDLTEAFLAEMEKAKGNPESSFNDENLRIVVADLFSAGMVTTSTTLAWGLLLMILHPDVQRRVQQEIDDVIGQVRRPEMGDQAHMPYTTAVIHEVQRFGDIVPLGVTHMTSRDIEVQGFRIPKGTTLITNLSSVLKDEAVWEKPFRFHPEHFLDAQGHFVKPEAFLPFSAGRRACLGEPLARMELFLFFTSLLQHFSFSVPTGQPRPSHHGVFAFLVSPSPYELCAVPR

Chain of Prostaglandin G/H synthase 1 (P23219 whole entry): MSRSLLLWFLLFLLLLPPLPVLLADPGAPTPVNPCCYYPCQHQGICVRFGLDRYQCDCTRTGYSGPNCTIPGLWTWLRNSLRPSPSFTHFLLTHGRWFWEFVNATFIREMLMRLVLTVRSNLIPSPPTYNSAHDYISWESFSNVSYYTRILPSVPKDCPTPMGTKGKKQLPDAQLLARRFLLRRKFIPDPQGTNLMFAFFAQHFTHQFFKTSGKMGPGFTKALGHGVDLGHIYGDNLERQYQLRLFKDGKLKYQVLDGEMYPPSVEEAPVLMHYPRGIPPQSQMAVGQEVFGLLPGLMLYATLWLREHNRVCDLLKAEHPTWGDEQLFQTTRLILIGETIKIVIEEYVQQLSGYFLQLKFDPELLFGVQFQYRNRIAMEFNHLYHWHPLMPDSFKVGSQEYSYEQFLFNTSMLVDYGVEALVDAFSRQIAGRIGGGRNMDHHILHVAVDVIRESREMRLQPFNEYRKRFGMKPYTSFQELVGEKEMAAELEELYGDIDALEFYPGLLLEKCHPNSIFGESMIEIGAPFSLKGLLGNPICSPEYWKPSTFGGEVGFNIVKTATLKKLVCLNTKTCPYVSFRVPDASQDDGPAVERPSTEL

POVIDONE
Not Active: IC50 [1] | Ki [1] | IC50 [2] | Ki [2] | IC50 [3] | Ki [3] | IC50 [4] | Ki [4] | IC50 [5] | Ki [5] | IC50 [6] | Ki [6] | IC50 [7] | Ki [7]
